Here are results for 4 molecules from patent US7229993B2, “Aryl substituted pyrimidines and the use thereof” (Euro-Celtique S.A., priority 2002, dated 2007).

The experiment has as its target rBIIa/beta 1 sodium channels expressed in Xenopus oocytes (Rattus norvegicus, UniProt P04775). The experiment in a line: Electrophysiological assay (two-electrode voltage clamp), sodium channel inhibition, inactivated state. In kind it is cell-based. Particulars: apparent Ki from single point inhibition data; rat brain type IIa/beta 1 channels in Xenopus oocytes; test pulse after 4 second depolarization from -120 mV holding potential; read-out: Ki (inhibition constant for sodium channel inhibition). The procedure:
An electrophysiological assay was used to measure potencies of compounds of the present invention rBIIa/beta 1 sodium channels expressed in Xenopus oocytes.
Preparation of cRNA encoding cloned rat brain type IIa (rBIIa) and beta 1 (β1): cDNA clones encoding the rat brain beta 1 subunit are cloned in house using standard methods, and mRNA are prepared by standard methods. mRNA encoding rBIIa is provided by Dr. A. Golden (UC Irvine). The mRNAs are diluted and stored at −80° C. in 1 μL aliquots until injection.
Preparation of oocytes: Mature female Xenopus laevis are anaesthetized (20–40 min) using 0.15% 3-aminobenzoic acid ethyl ester (MS-222) following established procedures (Woodward, R. M., et al., Mol. Pharmacol. 41:89–103 (1992)).
Two to six ovarian lobes are surgically removed. Oocytes at developmental stages V–VI are dissected from the ovary, wherein the oocytes are still surrounded by enveloping ovarian tissues. Oocytes are defolliculated on the day of surgery by treatment with collagenase (0.5 mg/mL Sigma Type I, or Boehringer Mannheim Type A, for 0.5–1 hr). Treated oocytes are vortexed to dislodge epithelia, washed repeatedly and stored in Barth's medium containing 88 mM NaCl, 1 mM KCl, 0.41 mM CaCl2, 0.33 mM Ca(NO3)2, 0.82 mM MgSO4, 2.4 mM NaHCO3, 5 mM HEPES, pH 7.4 adjusted with 0.1 mg/mL gentamycin sulphate.
Micro-injection of oocytes: Defolliculated oocytes are micro-injected using a Nanoject injection system (Drummond Scientific Co., Broomall, Pa.). Injection pipettes are beveled to minimize clogging. Tip diameter of injection pipettes is 15–35 μm. Oocytes are microinjected with approximately 50 nL 1:10 ratio mixtures of cRNAs for rBIIa and beta 1 respectively.
Electrophysiology: Membrane current responses are recorded in frog Ringer solution containing 115 mM NaCl, 2 mM KCl, 1.8 mM CaCl2, 5 mM HEPES, pH 7.4. Electrical recordings are made using a conventional two-electrode voltage clamp (Dagan TEV-200) over periods ranging between 1–7 days following injection. The recording chamber is a simple gravity fed flow-through chamber (volume […] depending on adjustment of aspirator). Oocytes are placed in the recording chamber, impaled with electrodes and continuously perfused (5–15 mL min^−1) with frog Ringer's solution. […]
Voltage protocols for evoking sodium channel currents: The standard holding potential for whole oocyte clamp is −120 mV. […] Peak currents are measured as the maximum negative current after depolarizing voltage steps. […]
The purpose is to find compounds that are state dependent modifiers of neuronal sodium channels. […] Sodium currents are measured at this test pulse before and after the application of the tested compound. Data is acquired using PCLAMP 8.0 software and analyzed with CLAMPFIT software (Axon instruments). […]

Chain of rBIIa/beta 1 sodium channels expressed in Xenopus oocytes (P04775 whole entry): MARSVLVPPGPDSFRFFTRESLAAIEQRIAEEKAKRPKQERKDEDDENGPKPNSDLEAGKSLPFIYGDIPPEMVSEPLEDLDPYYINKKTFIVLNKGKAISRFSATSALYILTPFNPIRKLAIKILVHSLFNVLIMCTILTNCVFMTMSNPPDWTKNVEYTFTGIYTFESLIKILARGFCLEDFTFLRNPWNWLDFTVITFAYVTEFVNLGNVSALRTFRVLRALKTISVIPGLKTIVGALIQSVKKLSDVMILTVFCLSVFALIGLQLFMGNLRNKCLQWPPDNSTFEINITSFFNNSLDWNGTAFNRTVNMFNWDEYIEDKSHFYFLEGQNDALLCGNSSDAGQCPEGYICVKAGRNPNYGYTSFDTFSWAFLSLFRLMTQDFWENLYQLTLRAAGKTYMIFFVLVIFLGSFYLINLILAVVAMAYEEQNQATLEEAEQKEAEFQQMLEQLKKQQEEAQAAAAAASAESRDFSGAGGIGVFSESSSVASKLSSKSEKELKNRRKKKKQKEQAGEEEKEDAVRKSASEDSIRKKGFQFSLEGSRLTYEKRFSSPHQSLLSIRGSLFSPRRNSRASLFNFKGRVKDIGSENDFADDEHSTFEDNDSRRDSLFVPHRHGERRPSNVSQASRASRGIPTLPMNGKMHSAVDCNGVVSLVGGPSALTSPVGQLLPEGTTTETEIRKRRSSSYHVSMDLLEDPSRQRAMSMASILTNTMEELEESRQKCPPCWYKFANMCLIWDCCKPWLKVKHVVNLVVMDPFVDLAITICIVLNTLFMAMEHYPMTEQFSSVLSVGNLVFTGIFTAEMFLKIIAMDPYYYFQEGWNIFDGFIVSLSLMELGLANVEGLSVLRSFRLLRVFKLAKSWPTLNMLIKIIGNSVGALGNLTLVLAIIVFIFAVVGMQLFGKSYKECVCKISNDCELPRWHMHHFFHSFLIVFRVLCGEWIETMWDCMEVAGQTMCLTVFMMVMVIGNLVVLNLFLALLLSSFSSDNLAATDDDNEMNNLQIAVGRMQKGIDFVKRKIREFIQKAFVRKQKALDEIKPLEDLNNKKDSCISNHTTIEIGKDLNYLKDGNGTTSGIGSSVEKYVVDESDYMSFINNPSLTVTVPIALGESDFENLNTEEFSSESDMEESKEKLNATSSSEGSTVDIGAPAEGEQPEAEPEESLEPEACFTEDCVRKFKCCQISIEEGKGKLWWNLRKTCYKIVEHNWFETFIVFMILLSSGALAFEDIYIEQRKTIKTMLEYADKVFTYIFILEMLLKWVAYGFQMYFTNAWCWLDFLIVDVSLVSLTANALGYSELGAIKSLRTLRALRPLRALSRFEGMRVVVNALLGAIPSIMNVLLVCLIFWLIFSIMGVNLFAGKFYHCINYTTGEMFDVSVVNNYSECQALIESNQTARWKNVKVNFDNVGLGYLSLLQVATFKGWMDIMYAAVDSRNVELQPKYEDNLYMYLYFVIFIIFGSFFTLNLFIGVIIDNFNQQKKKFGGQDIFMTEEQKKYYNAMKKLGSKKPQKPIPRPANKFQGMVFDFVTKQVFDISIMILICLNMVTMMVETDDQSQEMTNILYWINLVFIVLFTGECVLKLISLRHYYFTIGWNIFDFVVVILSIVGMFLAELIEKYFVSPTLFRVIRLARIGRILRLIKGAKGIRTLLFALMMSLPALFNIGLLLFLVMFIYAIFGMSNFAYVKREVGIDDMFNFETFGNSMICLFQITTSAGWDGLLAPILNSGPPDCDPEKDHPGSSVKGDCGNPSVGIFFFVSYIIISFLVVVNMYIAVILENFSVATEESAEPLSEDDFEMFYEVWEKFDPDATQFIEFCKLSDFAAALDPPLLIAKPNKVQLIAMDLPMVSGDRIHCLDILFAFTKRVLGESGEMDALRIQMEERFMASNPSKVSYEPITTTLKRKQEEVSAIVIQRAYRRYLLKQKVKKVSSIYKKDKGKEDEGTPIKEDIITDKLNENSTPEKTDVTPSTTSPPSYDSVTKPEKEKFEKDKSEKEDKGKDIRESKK
Chain of rBIIa/beta 1 sodium channels expressed in Xenopus oocytes (Q00954 19-218 partner): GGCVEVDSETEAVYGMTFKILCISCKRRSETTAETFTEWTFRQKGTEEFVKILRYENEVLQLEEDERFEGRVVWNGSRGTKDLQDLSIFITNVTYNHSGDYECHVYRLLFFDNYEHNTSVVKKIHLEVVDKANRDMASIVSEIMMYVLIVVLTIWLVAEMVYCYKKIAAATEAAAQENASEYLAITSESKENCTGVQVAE

As for “2-(4-(4-fluorophenoxy)phenyl)-4-tert-butyl-6-aminopyrimidin-4-one”, the Ki was 15.6 µM. `Nc1nc(-c2ccc(Oc3ccc(F)cc3)cc2)[nH]c(=O)c1Cc1ccccc1Cl` [2-(4-(4-fluorophenoxy)phenyl)-6-amino-5-(2-chlorobenzyl)pyrimidin-4-one]: the Ki was 30.9 µM. The value for `Nc1cc(=O)[nH]c(-c2ccc(Oc3ccc(F)cc3)cc2)n1` [2-(4-(4-fluorophenoxy)phenyl)-6-amino-pyrimidin-4-one] was 0.47 µM; that for `Nc1nc(-c2ccccc2)[nH]c(=O)c1Cc1ccccc1Cl` [2-phenyl-6-amino-5-(2-chlorobenzyl)pyrimidin-4-one] was 49.2 µM.
